Measured values: the supplement of paper PMC11208160

Assay: recombinant UMI read abundance after kanamycin selection (control-corrected) (log10(CPM+1)); higher = more efficient recombination; extreme values may be limits of the assay; sequences stand for … in AGTGCAGAGAAAATCGGCCAGTTTTCTCTGCCTGCAGTCCGCATGCCGTGGGACCCCTTGGGTTCTAACCTGTTGCCTAGATTTATGCAGCGGACTGCCTTTCTCCCAAAGTGATAAACCGG…AGGTTGGTTTCACT; site = the 11-nt donor
How it was run: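 Values are reported as log10(CPM+1), obtained by converting sequencing counts to CPM, averaging replicates and scaling by control-derived factors. The counts came from recombinant UMIs amplified by PCR across the donor–target junction. These UMIs came from a pooled Escherichia coli screen of donor and donor-binding-loop pairs for the IS621 bridge recombinase, plated with IPTG (0.07 mM) plus kanamycin or left unselected, in two replicates each.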
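Further: IS621 bridge recombinase in Escherichia coli cells against a fixed T5 target plasmid.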

Sequence	recombinant UMI read abundance (log10)
TGCGGTCCATGGACCGGTTTTCCCGGTAATCCGTATTTGAG (site TGCGGTCCTCT)	0.0157
TGCTAAGCATGGACCGGTTTTCCCGGTAATCCGTATTTGGT (site TGCTAAGCTAC)	0.906
TGCTAAGCATGGACCGGTTTTCCCGGTAATCCGTATTTGGT (site TGCTACGCTAC)	0
TGCTAAGCATGGACCGGTTTTCCCGGTAATCCGTATTTGGT (site TGCTAGGCTAC)	0.0128
TGCTAAGCATGGACCGGTTTTCCCGGTAATCCGTATTTGGT (site TGCTATGCTAC)	0.0152
TGCTAGACATGGACCGGTTTTCCCGGTAATCCGTATTTGGT (site TGCTAGACTAC)	0.462
TGCTAGACATGGACCGGTTTTCCCGGTAATCCGTATTTGGT (site TGCTAGCCTAC)	0.00952
TGCTAGACATGGACCGGTTTTCCCGGTAATCCGTATTTGGT (site TGCTAGGCTAC)	0.0111
TGCTAGACATGGACCGGTTTTCCCGGTAATCCGTATTTGGT (site TGCTAGTCTAC)	0.357
TGCTAGGCATGGACCGGTTTTCCCGGTAATCCGTATTTGGT (site AGCTAGGCTAC)	0.0183
TGCTAGGCATGGACCGGTTTTCCCGGTAATCCGTATTTGGT (site CGCTAGGCTAC)	0.019
TGCTAGGCATGGACCGGTTTTCCCGGTAATCCGTATTTGGT (site GGCTAGGCTAC)	0.0224
TGCTAGGCATGGACCGGTTTTCCCGGTAATCCGTATTTGGT (site TACTAGGCTAC)	0.00634
TGCTAGGCATGGACCGGTTTTCCCGGTAATCCGTATTTGGT (site TCCTAGGCTAC)	0.0105
TGCTAGGCATGGACCGGTTTTCCCGGTAATCCGTATTTGGT (site TGATAGGCTAC)	0.00571
TGCTAGGCATGGACCGGTTTTCCCGGTAATCCGTATTTGGT (site TGCAAGGCTAC)	0
TGCTAGGCATGGACCGGTTTTCCCGGTAATCCGTATTTGGT (site TGCCAGGCTAC)	0.00869
TGCTAGGCATGGACCGGTTTTCCCGGTAATCCGTATTTGGT (site TGCGAGGCTAC)	0.00468
TGCTAGGCATGGACCGGTTTTCCCGGTAATCCGTATTTGGT (site TGCTAAGCTAC)	0.0704
TGCTAGGCATGGACCGGTTTTCCCGGTAATCCGTATTTGGT (site TGCTACGCTAC)	0.0185
TGCTAGGCATGGACCGGTTTTCCCGGTAATCCGTATTTGGT (site TGCTAGACTAC)	0.0977
TGCTAGGCATGGACCGGTTTTCCCGGTAATCCGTATTTGGT (site TGCTAGCCTAC)	0.0225
TGCTAGGCATGGACCGGTTTTCCCGGTAATCCGTATTTGGT (site TGCTAGGCTAA)	0.0155
TGCTAGGCATGGACCGGTTTTCCCGGTAATCCGTATTTGGT (site TGCTAGGCTAC)	0.108
TGCTAGGCATGGACCGGTTTTCCCGGTAATCCGTATTTGGT (site TGCTAGGCTAG)	0.0108

Sequence	recombinant UMI read abundance (log10)
TGCTAGGCATGGACCGGTTTTCCCGGTAATCCGTATTTGGT (site TGCTAGGCTAT)	0.0134
TGCTAGGCATGGACCGGTTTTCCCGGTAATCCGTATTTGGT (site TGCTAGGCTCC)	0.0152
TGCTAGGCATGGACCGGTTTTCCCGGTAATCCGTATTTGGT (site TGCTAGGCTGC)	0.0103
TGCTAGGCATGGACCGGTTTTCCCGGTAATCCGTATTTGGT (site TGCTAGGCTTC)	0.0129
TGCTAGGCATGGACCGGTTTTCCCGGTAATCCGTATTTGGT (site TGCTAGTCTAC)	0.00544
TGCTAGGCATGGACCGGTTTTCCCGGTAATCCGTATTTGGT (site TGCTATGCTAC)	0.00951
TGCTAGGCATGGACCGGTTTTCCCGGTAATCCGTATTTGGT (site TGCTCGGCTAC)	0.0253
TGCTAGGCATGGACCGGTTTTCCCGGTAATCCGTATTTGGT (site TGCTGGGCTAC)	0.0136
TGCTAGGCATGGACCGGTTTTCCCGGTAATCCGTATTTGGT (site TGCTTGGCTAC)	0.0132
TGCTAGGCATGGACCGGTTTTCCCGGTAATCCGTATTTGGT (site TGGTAGGCTAC)	0.00942
TGCTAGGCATGGACCGGTTTTCCCGGTAATCCGTATTTGGT (site TGTTAGGCTAC)	0.026
TGCTAGGCATGGACCGGTTTTCCCGGTAATCCGTATTTGGT (site TTCTAGGCTAC)	0.0121
TGCTAGTCATGGACCGGTTTTCCCGGTAATCCGTATTTGGT (site TGCTAGACTAC)	0.00505
TGCTAGTCATGGACCGGTTTTCCCGGTAATCCGTATTTGGT (site TGCTAGCCTAC)	0.0102
TGCTAGTCATGGACCGGTTTTCCCGGTAATCCGTATTTGGT (site TGCTAGGCTAC)	0.00963
TGCTAGTCATGGACCGGTTTTCCCGGTAATCCGTATTTGGT (site TGCTAGTCTAC)	1.07
TGCTCAGCATGGACCGGTTTTCCCGGTAATCCGTATTTGGG (site AGCTCAGCTCC)	0.0267
TGCTCAGCATGGACCGGTTTTCCCGGTAATCCGTATTTGGG (site CGCTCAGCTCC)	0.0151
TGCTCAGCATGGACCGGTTTTCCCGGTAATCCGTATTTGGG (site GGCTCAGCTCC)	0.0391
TGCTCAGCATGGACCGGTTTTCCCGGTAATCCGTATTTGGG (site TGCTCAGCTCC)	0.00921
TGCTCGGCATGGACCGGTTTTCCCGGTAATCCGTATTTGAT (site TGCTCGGCTAT)	0.54
TGCTCGGCATGGACCGGTTTTCCCGGTAATCCGTATTTGGT (site TGCTAGGCTAC)	0.00732
TGCTCGGCATGGACCGGTTTTCCCGGTAATCCGTATTTGGT (site TGCTCGGCTAC)	0.0236
TGCTCGGCATGGACCGGTTTTCCCGGTAATCCGTATTTGGT (site TGCTGGGCTAC)	0.00677
TGCTCGGCATGGACCGGTTTTCCCGGTAATCCGTATTTGGT (site TGCTTGGCTAC)	0.00594

Sequence	recombinant UMI read abundance (log10)
TGCTGAGCATGGACCGGTTTTCCCGGTAATCCGTATTTGAT (site TGCTGAGCTAT)	1.36
TGCTTCGCATGGACCGGTTTTCCCGGTAATCCGTATTTGTC (site TGCTTCGCTGA)	0.542
TGGAATACATGGACCGGTTTTCCCGGTAATCCGTATTTGCA (site TAGAATACTTG)	0.91
TGGAATACATGGACCGGTTTTCCCGGTAATCCGTATTTGCA (site TCGAATACTTG)	0.55
TGGAATACATGGACCGGTTTTCCCGGTAATCCGTATTTGCA (site TGGAATACTTG)	1.86
TGGAATACATGGACCGGTTTTCCCGGTAATCCGTATTTGCA (site TTGAATACTTG)	0.00597
TGGAATCCATGGACCGGTTTTCCCGGTAATCCGTATTTGTG (site CGGAATCCTAA)	0.00353
TGGAATCCATGGACCGGTTTTCCCGGTAATCCGTATTTGTG (site TGGAATCCTCA)	0.604
TGGAATGCATGGACCGGTTTTCCCGGTAATCCGTATTTGTT (site CGGAATCCTAA)	0.00325
TGGAATGCATGGACCGGTTTTCCCGGTAATCCGTATTTGTT (site TGGAATGCTAA)	1.71
TGGACACCATGGACCGGTTTTCCCGGTAATCCGTATTTGAC (site TGAACACCTGT)	0
TGGACACCATGGACCGGTTTTCCCGGTAATCCGTATTTGAC (site TGCACACCTGT)	0
TGGACACCATGGACCGGTTTTCCCGGTAATCCGTATTTGAC (site TGGACACCTGT)	0
TGGACACCATGGACCGGTTTTCCCGGTAATCCGTATTTGAC (site TGTACACCTGT)	0
TGGAGTGCATGGACCGGTTTTCCCGGTAATCCGTATTTGAC (site TGGAGTGCTGT)	2.21
TGGATACCATGGACCGGTTTTCCCGGTAATCCGTATTTGTT (site TGGATACCTAA)	0
TGGATGACATGGACCGGTTTTCCCGGTAATCCGTATTTGCA (site AGGAAGACTTG)	0.54
TGGATGACATGGACCGGTTTTCCCGGTAATCCGTATTTGCA (site TGGATGACTTG)	2.44
TGGATGTCATGGACCGGTTTTCCCGGTAATCCGTATTTGAA (site TGGATGTCTTT)	2.11
TGGCAAGCATGGACCGGTTTTCCCGGTAATCCGTATTTGTC (site TGGCAAGCTGA)	0
TGGCCCGCATGGACCGGTTTTCCCGGTAATCCGTATTTGGC (site TGGCCAGCTGC)	0
TGGCCCGCATGGACCGGTTTTCCCGGTAATCCGTATTTGGC (site TGGCCCGCTGC)	0.649
TGGCCCGCATGGACCGGTTTTCCCGGTAATCCGTATTTGGC (site TGGCCGGCTGC)	0
TGGCCCGCATGGACCGGTTTTCCCGGTAATCCGTATTTGGC (site TGGCCTGCTGC)	0
TGGCCGACATGGACCGGTTTTCCCGGTAATCCGTATTTGGG (site TGGCCGACTCC)	0
